Assay results from article PMC9641054, “Antimicrobial activity of cationic antimicrobial peptides against stationary phase bacteria” (Frontiers in Microbiology, 2022).
≈ marks a conversion by molar mass, not a printed value. No end group written: not given here.

Experiments:
Format in all cases: cell-based
[1] = test system: Staphylococcus aureus SH1000; assay: Killing experiment at 10x MIC, fast-growing (exponential) versus stationary phase bacteria in spent medium; conditions: for Killing fold-change 4 h (median) / Killing fold-change 24 h: S. aureus SH1000, exponentially growing versus stationary phase cultures, 10x MIC, ~2 × 10^6 CFU/ml, 37°C, five independent cultures; for Killing of stationary phase bacteria at 4 h (in words) / Killing of stationary phase bacteria at 24 h (in words): stationary phase in spent medium
Procedure: (§1) For exponentially growing bacteria, five independent cultures per treatment were diluted 1:100 from a 16-h overnight culture (by adding 100 μl to 10 ml of MHB medium in 50 ml Falcon tubes). Then, the bacteria were grown for 2 h for E. coli and 2.5 h for S. aureus, to reach approximately 2 × 10^8 CFU/ml. The cultures were then diluted 1/100 in fresh medium to reach approximately 2 × 10^6 CFU/ml. […] Volumes of 100 μl-sample were extracted at 4 and 24 h. The aliquots were diluted and plated to determine cell viability. Non-treated cells were used as a control. All incubations took place at 37°C with shaking.
(§2) In order to maintain bacteria in their non-dividing state, we generated a medium to carry out the killing assays. From the supernatant of 500 ml of 48-h culture from each bacterium, the cells were pelleted at 4000 ×g for 30 min. The pH of each culture was adjusted to match the original pH of 7.2. To remove additional cell debris, flagella rest and outer membrane vesicles that could potentially interfere with the activity of AMPs ([Manning and Kuehn, 2011]), the supernatants were ultracentrifuged at 100000 ×g during 16 h at + 4°C. Thereafter, 250 ml of the supernatant from each flask was carefully recovered, without perturbing the pellet, and aseptically filtrated using 0.22 μm syringe filters and 40 ml were transferred to sterile 50 ml-falcon tubes, that were stored at −20°C until use. We refer to this medium as spent medium.
(§3) For stationary phase bacteria, five independent cultures per treatment were used. Bacteria from 48-h cultures containing approximately 3 × 10^9 CFU/ml for E. coli and 2 × 10^9 CFU/ml for S. aureus were diluted in spent medium (see preparation above) to a final cell density of 2×10^6 CFU/ml. Then, the bacteria were treated identically to the fast-growing bacteria killing experiment described above.
(§4) Statistical testing and plots were done in R version 3.3.2 ([R Core Team, 2017]), using Rstudio version 1.0.143 ([R Development Core Team, 2015]). To compare killing rates between bacteria growing in exponential and stationary phase for each antimicrobial after 4 and 24 h of exposure, a Welch’s t-test was used. Values below the detection limit (zero colony counts) were imputed for statistical purposes assigning a value of 1.

Escherichia coli K12 [2] = assay: as above; conditions: for Killing fold-change 4 h (median) / Killing fold-change 24 h: E. coli K12, exponentially growing versus stationary phase cultures, 10x MIC, ~2 × 10^6 CFU/ml, 37°C, five independent cultures; for Killing of stationary phase bacteria at 4 h (in words) / Killing of stationary phase bacteria at 24 h (in words): stationary phase in spent medium
Procedure: as §1, §2, §3, §4

[3] = test system: Staphylococcus aureus SH1000; assay: microbe, parasite or virus in culture; conditions: for MIC: Staphylococcus aureus, SH1000, read-out: MIC S. aureus SH1000
Procedure: (§5) The Escherichia coli K12 from Yale University Microbial Stock Center and Staphylococcus aureus SH1000 ([Horsburgh et al., 2002]) were used for all experiments. All cultures related to antimicrobial tests and experiments were carried out in Mueller-Hinton I broth (Sigma) devoid of cations. Both strains were routinely cultured in Lysogeny Broth (LB medium).
(§6) The minimal inhibitory concentration for each antimicrobial were determined according to CLSI recommendations by the microdilution method ([CLSI, 2018]) with minor modifications for antimicrobial peptides ([Giacometti et al., 2000]). For comparison, we kept these modifications also for antibiotics. Inoculum size that was adjusted to approximately 1 × 10^6 CFU/ml from a 2-h mid-exponential phase obtained by diluting 100 μl of overnight cultures in 10 ml of fresh medium in 50 ml Falcon tubes. The MIC was defined as the minimal antimicrobial concentration that inhibited growth, after 24 h of incubation in liquid MHB medium at 37°C. Polypropylene non-binding plates (96 wells, Th. Geyer, Germany) were used for all experiments.

Escherichia coli K12 [4] = assay: microbe, parasite or virus in culture; conditions: for MIC: Escherichia coli, K12, read-out: MIC E. coli K12
Procedure: as §5, §6

[5] = microdilution, inoculum ~1 × 10^6 CFU/ml mid-exponential phase, MHB devoid of cations, 24 h, 37°C, polypropylene non-binding plates

Compound | Killing fold-change 4 h (median) [1] | Killing fold-change 24 h [1] | Killing of stationary phase bacteria at 4 h (in words) ([1]; S. aureus, 10 × MIC) | Killing of stationary phase bacteria at 24 h (in words) ([1]; S. aureus, 10 × MIC) | Killing fold-change 4 h (median) (Escherichia coli K12 [2]) | Killing fold-change 24 h (Escherichia coli K12 [2]) | Killing of stationary phase bacteria at 4 h (in words) (Escherichia coli K12 [2]; E. coli, 10 × MIC) | Killing of stationary phase bacteria at 24 h (in words) (Escherichia coli K12 [2]; E. coli, 10 × MIC) | MIC [3, 5] | MIC (Escherichia coli K12 [4]; [5]) | Killing of bacterial cultures (in words) ([1]; S. aureus, 10 × MIC, fast and slow-replicating bacteria, both time-points 4 and 24 h) | Killing of bacterial cultures (in words) (Escherichia coli K12 [2]; E. coli, 10 × MIC, fast and slow-replicating bacteria, both time-points 4 and 24 h) | MIC S. aureus SH1000 [3, 5] | MIC E. coli K12 (Escherichia coli K12 [4]; [5]) | MIC S. aureus SH1000 ([3]; SH1000, 24 h) | MIC E. coli K12 (Escherichia coli K12 [4]; K12, 24 h)
CC1(C)S[C@@H]2[C@H](NC(=O)[C@H](N)c3ccccc3)C(=O)N2[C@H]1C(=O)O [Ampicillin] | 13087.25 | 4,470,000 | did not kill | poor killing capacity | 595.18 | 4,150,000 | did not kill | poor killing capacity | 4 µg/mL (≈ 11.4 µM) | 2 µg/mL (≈ 5.72 µM) | – | – | – | – | – | –
O=C(O)c1cn(C2CC2)c2cc(N3CCNCC3)c(F)cc2c1=O [Ciprofloxacin] | – | – | – | reduced microbial count for both models with a significantly lower efficacy than killing fast-replicating cultures | – | – | – | reduced microbial count for both models with a significantly lower efficacy than killing fast-replicating cultures | – | – | – | – | – | – | – | –
CNC(C)C1CCC(N)C(OC2C(N)CC(N)C(OC3OCC(C)(O)C(NC)C3O)C2O)O1 (centres unmarked) [Gentamicin] | 8508.47 | 2,890,000 | – | reduced microbial count for both models with a significantly lower efficacy than killing fast-replicating cultures | 10380.62 | 317,000 | – | reduced microbial count for both models with a significantly lower efficacy than killing fast-replicating cultures | 4 µg/mL (≈ 8.38 µM) | 1 µg/mL (≈ 2.09 µM) | – | – | – | – | – | –
CC[C@H](C)[C@H](N)C(=O)N[C@@H](CC(C)C)C(=O)N1CCC[C@H]1C(=O)N[C@@H](Cc1c[nH]c2ccccc12)C(=O)N[C@@H](CCCCN)C(=O)N[C@@H](Cc1c[nH]c2ccccc12)C(=O)N1CCC[C@H]1C(=O)N[C@@H](Cc1c[nH]c2ccccc12)C(=O)N[C@@H](Cc1c[nH]c2ccccc12)C(=O)N1CCC[C@H]1C(=O)N[C@@H](Cc1c[nH]c2ccccc12)C(=O)N[C@@H](CCCNC(=N)N)C(=O)N[C@@H](CCCNC(=N)N)C(N)=O [Indolicidin] | – | 1 | – | – | – | 1 | – | – | – | – | completely killing | completely killing | 8 µg/mL (≈ 4.2 µM) | 16 µg/mL (≈ 8.39 µM) | – | –
CC[C@H](C)[C@H](NC(=O)[C@H](CCCCN)NC(=O)[C@H](CCC(=O)O)NC(=O)[C@H](CCCCN)NC(=O)[C@H](CO)NC(=O)[C@H](CCCCN)NC(=O)[C@H](CCCNC(=N)N)NC(=O)[C@H](Cc1ccccc1)NC(=O)[C@H](Cc1ccccc1)NC(=O)[C@H](CC(=O)O)NC(=O)CNC(=O)[C@H](CC(C)C)NC(=O)[C@@H](N)CC(C)C)C(=O)NCC(=O)N[C@@H](CCCCN)C(=O)N[C@@H](CCC(=O)O)C(=O)N[C@@H](Cc1ccccc1)C(=O)N[C@@H](CCCCN)C(=O)N[C@@H](CCCNC(=N)N)C(=O)N[C@H](C(=O)N[C@H](C(=O)N[C@@H](CCC(N)=O)C(=O)N[C@@H](CCCNC(=N)N)C(=O)N[C@H](C(=O)N[C@@H](CCCCN)C(=O)N[C@@H](CC(=O)O)C(=O)N[C@@H](Cc1ccccc1)C(=O)N[C@@H](CC(C)C)C(=O)N[C@@H](CCCNC(=N)N)C(=O)N[C@@H](CC(N)=O)C(=O)N[C@@H](CC(C)C)C(=O)N[C@H](C(=O)N1CCC[C@H]1C(=O)N[C@@H](CCCNC(=N)N)C(=O)N[C@H](C(=O)N[C@@H](CCC(=O)O)C(=O)N[C@@H](CO)C(=O)O)[C@@H](C)O)C(C)C)[C@@H](C)CC)C(C)C)[C@@H](C)CC [LL-37] | 0.66 | 1 | some delay in killing | – | 3.71 | 1 | some delay in killing | – | – | – | – | – | 8 µg/mL (≈ 1.78 µM) | 4 µg/mL (≈ 0.89 µM) | – | –
CC[C@H](C)[C@H](NC(=O)CN)C(=O)NCC(=O)N[C@@H](C)C(=O)N[C@H](C(=O)N[C@@H](CC(C)C)C(=O)N[C@@H](CCCCN)C(=O)N[C@H](C(=O)N[C@@H](CC(C)C)C(=O)N[C@H](C(=O)N[C@H](C(=O)NCC(=O)N[C@@H](CC(C)C)C(=O)N1CCC[C@H]1C(=O)N[C@@H](C)C(=O)N[C@@H](CC(C)C)C(=O)N[C@H](C(=O)N[C@@H](CO)C(=O)N[C@@H](Cc1c[nH]c2ccccc12)C(=O)N[C@H](C(=O)N[C@@H](CCCCN)C(=O)N[C@@H](CCCNC(=N)N)C(=O)N[C@@H](CCCCN)C(=O)N[C@@H](CCCNC(=N)N)C(=O)N[C@@H](CCC(N)=O)C(=O)N[C@@H](CCC(N)=O)C(N)=O)[C@@H](C)CC)[C@@H](C)CC)[C@@H](C)O)[C@@H](C)O)C(C)C)C(C)C [Melittin] | – | 17 | some delay in killing | – | – | – | some delay in killing | – | – | – | – | – | 2 µg/mL (≈ 0.703 µM) | 2 µg/mL (≈ 0.703 µM) | – | –
GIGKFLKKAKKFGKAFVKILKK-NH2 (C-terminus assumed) [Pexiganan] | 1.14 | 1 | some delay in killing | – | 2.53 | 1 | some delay in killing | – | – | – | – | – | – | – | 8 µg/mL | 4 µg/mL
KWKLFKKIEKVGQNIRDGIIKAGPAVAVVGQATQIAK-NH2 (C-terminus assumed) [Cecropin A] | 1.30 | 0.22 | some delay in killing | – | 1.21 | 27 | some delay in killing | – | – | – | – | – | – | – | – | –
